Like-named read-outs stand apart in the source and are kept apart here. Non-standard residues stand in square brackets, D forms with d. Residues, ends and D or L forms follow the SMILES beside them. No end group written: not given here. Aib = CC(C)(N)C(=O)O
Columns and labels:
[1] = biological target: T1, LCAT (purified from human plasma) (Homo sapiens, UniProt P04180); assay: LCAT activation assay; assay type: biochemical
T1 construct: from tissue; host or cells: human plasma
T1 sequence (P04180 25-440): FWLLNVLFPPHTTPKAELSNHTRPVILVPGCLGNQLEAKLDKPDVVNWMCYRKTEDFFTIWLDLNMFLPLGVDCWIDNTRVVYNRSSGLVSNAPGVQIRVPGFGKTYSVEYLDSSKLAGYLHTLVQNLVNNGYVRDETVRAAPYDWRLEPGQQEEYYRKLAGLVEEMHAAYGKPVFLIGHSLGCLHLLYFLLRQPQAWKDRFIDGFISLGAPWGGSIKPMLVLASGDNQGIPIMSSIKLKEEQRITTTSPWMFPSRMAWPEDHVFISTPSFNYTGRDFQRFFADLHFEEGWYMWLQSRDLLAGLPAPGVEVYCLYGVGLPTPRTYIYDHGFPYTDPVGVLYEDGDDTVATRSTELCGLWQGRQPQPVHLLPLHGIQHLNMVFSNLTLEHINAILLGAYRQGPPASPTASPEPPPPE
Summary of the method: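 Activity was expressed as percentage conversion of radiolabelled cholesterol to cholesteryl ester, normalised to native ApoA-I as 100%. LCAT purified from human plasma was added to peptide-preincubated EPC or POPC/cholesterol (20:1) small unilamellar vesicles at pH 7.4. Specific activity is the peptide concentration reaching the conversion plateau at a fixed timepoint.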

[2] = Circular dichroism helicity determination; assay type: physicochemical; details: for He (%) TFE: 5 μM peptide, 90% vol TFE; for He (%) TFE / He (%) SUVs: 37° C.; for He (%) free: unbound peptide 5 μM in 5 mM phosphate buffer, pH 7.4, 37° C.; for He (%) SUVs: peptide-SUV complexes (20:1 EPC:Chol., Ri=30 and Ri=50)
Summary of the method: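 Far-UV CD (190–260 nm) at 37° C on 5 μM peptide in 5 mM phosphate pH 7.4, free, with EPC:Chol 20:1 SUVs (Ri 30 or 50), lysophosphatidylcholine micelles (Ri 100) or 90% TFE. Spectra converted to molar ellipticity per residue; helicity from 222 nm ellipticity or CONTIN fitting to reference spectra, ±5%.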

[3] = LCAT activation as compared with native human ApoA-I (= 100%), equivalent masses
[4] = percent helicity, peptide-micelle complexes, Ri=100, 37° C.

Molecule	ACTIVITY (%) LCAT [1, 3] [%]	He (%) TFE ([2]; percent helicity) [%]	He (%) free ([2]; percent helicity) [%]	He (%) SUVs ([2]; percent helicity) [%]	He (%) mics [2, 4] [%]	ACTIVITY (%) LCAT ([1]; LCAT activation as compared with native human ApoA-I (= 100%), equivalent masses, listed as 18AM4)	ACTIVITY (%) LCAT [1] [%]	He (%) mics [2] [%]
CC(C)C[C@H](NC(=O)[C@H](C)NC(=O)[C@H](CCC(=O)O)NC(=O)[C@H](CC(C)C)NC(=O)C(C)(C)NC(=O)[C@H](CCC(=O)O)NC(=O)[C@H](CC(N)=O)NC(=O)[C@H](CC(C)C)NC(=O)[C@H](CCCCN)NC(=O)[C@H](CCC(=O)O)NC(=O)[C@H](CCCNC(=N)N)NC(=O)[C@H](Cc1ccccc1)NC(=O)[C@H](CCC(=O)O)NC(=O)[C@H](CC(=O)O)NC(=O)[C@H](CC(C)C)NC(=O)[C@@H](NC(=O)[C@@H]1CCCN1)C(C)C)C(=O)N[C@@H](CCCCN)C(=O)N[C@@H](CCC(N)=O)C(=O)N[C@@H](CCCCN)C(=O)N[C@@H](CC(C)C)C(=O)N[C@@H](CCCCN)C(=O)O [compound 45, PVLDEFREKLNEXLEALKQKLK] (H-PVLDEFREKLNE[Aib]LEALKQKLK-OH)	24	86	24	25	84			
PLFRELLNELLEALKQKLK [compound 55]	19	75	38	78	72			
CC(C)C[C@H](NC(=O)[C@H](C)NC(=O)[C@H](CCC(=O)O)NC(=O)[C@H](CC(C)C)NC(=O)C(C)(C)NC(=O)[C@H](CCC(=O)O)NC(=O)[C@H](CC(N)=O)NC(=O)[C@H](CC(C)C)NC(=O)[C@H](CC(C)C)NC(=O)[C@H](CCC(=O)O)NC(=O)[C@H](CCCNC(=N)N)NC(=O)[C@H](Cc1ccccc1)NC(=O)[C@H](Cc1ccccc1)NC(=O)[C@H](CC(=O)O)NC(=O)[C@H](CC(C)C)NC(=O)[C@@H](NC(=O)[C@@H]1CCCN1)C(C)C)C(=O)N[C@@H](CCCCN)C(=O)N[C@@H](CCC(N)=O)C(=O)N[C@@H](CCCCN)C(=O)N[C@@H](CC(C)C)C(=O)N[C@@H](CCCCN)C(=O)O [peptide 25, PVLDFFRELLNEXLEALKQKLK] (H-PVLDFFRELLNE[Aib]LEALKQKLK-OH)	51	93	46		82			
CC(C)C[C@H](NC(=O)[C@H](C)NC(=O)[C@H](CCC(=O)O)NC(=O)[C@H](CC(C)C)NC(=O)C(C)(C)NC(=O)[C@H](CCC(=O)O)NC(=O)[C@H](CC(N)=O)NC(=O)[C@H](CC(C)C)NC(=O)[C@H](CC(C)C)NC(=O)[C@H](Cc1c[nH]c2ccccc12)NC(=O)[C@H](CCCNC(=N)N)NC(=O)[C@H](Cc1ccccc1)NC(=O)[C@H](CC(C)C)NC(=O)[C@H](CC(=O)O)NC(=O)[C@H](CC(C)C)NC(=O)[C@@H](NC(=O)[C@@H]1CCCN1)C(C)C)C(=O)N[C@@H](CCCCN)C(=O)N[C@@H](CCC(N)=O)C(=O)N[C@@H](CCCCN)C(=O)N[C@@H](CC(C)C)C(=O)N[C@@H](CCCCN)C(=O)O [compound 108, PVLDLFRWLLNEXLEALKQKLK] (H-PVLDLFRWLLNE[Aib]LEALKQKLK-OH)	0	54	28		55			
CC(C)C[C@H](NC(=O)[C@H](C)NC(=O)[C@H](CCC(=O)O)NC(=O)[C@H](CC(C)C)NC(=O)C(C)(C)NC(=O)[C@H](CCC(=O)O)NC(=O)[C@H](Cc1c[nH]c2ccccc12)NC(=O)[C@H](CC(C)C)NC(=O)[C@H](CC(C)C)NC(=O)[C@H](CCC(=O)O)NC(=O)[C@H](CCCNC(=N)N)NC(=O)[C@H](Cc1ccccc1)NC(=O)[C@H](CC(C)C)NC(=O)[C@H](CC(=O)O)NC(=O)[C@H](CC(C)C)NC(=O)[C@@H](NC(=O)[C@@H]1CCCN1)C(C)C)C(=O)N[C@@H](CCCCN)C(=O)N[C@@H](CCC(N)=O)C(=O)N[C@@H](CCCCN)C(=O)N[C@@H](CC(C)C)C(=O)N[C@@H](CCCCN)C(=O)O [compound 50, PVLDLFRELLWEXLEALKQKLK] (H-PVLDLFRELLWE[Aib]LEALKQKLK-OH)	21	76	68	89	84			
PVLDAFRELLEALAQLKK [compound 223]	8	51	21	23	56			
PVLELFENLLERLLDWLQKKLK [compound 160]	28	61	65	75	73			
Ac-DWLKAFYDKVAEKLKEAF-NH2 [compound 240, reference compound]	10	57	16	59	68			
LDDLLQKWAEAFNQLLKK [peptide 237, reference compound]	11		30	45	66			
EWLEAFYKKVLEKLKELF [peptide 246, reference compound]	4		18	47	44	less than 4%		
GVLELFENLLERLLDALQKKLK [peptide 145]	100	58	55		51			
CC(C)C[C@H](NC(=O)[C@H](C)NC(=O)[C@H](CCC(=O)O)NC(=O)[C@H](CC(C)C)NC(=O)C(C)(C)NC(=O)[C@H](CCC(=O)O)NC(=O)[C@H](CC(N)=O)NC(=O)[C@H](CC(C)C)NC(=O)[C@H](CC(C)C)NC(=O)[C@H](CCC(=O)O)NC(=O)[C@H](Cc1c[nH]c2ccccc12)NC(=O)[C@H](Cc1ccccc1)NC(=O)[C@H](CC(C)C)NC(=O)[C@H](CC(=O)O)NC(=O)[C@H](CC(C)C)NC(=O)[C@@H](NC(=O)[C@@H]1CCCN1)C(C)C)C(=O)N[C@@H](CCCCN)C(=O)N[C@@H](CCC(N)=O)C(=O)N[C@@H](CCCCN)C(=O)N[C@@H](CC(C)C)C(=O)N[C@@H](CCCCN)C(=O)O [compound 51, PVLDLFWELLNEXLEALKQKLK] (H-PVLDLFWELLNE[Aib]LEALKQKLK-OH)	20	73	63	81	82			
PVLDLFREWLNELLEALKQKLK [compound 37]	29	73	65	76	75			
CC(C)C[C@H](NC(=O)[C@H](C)NC(=O)[C@H](CCC(=O)O)NC(=O)[C@H](CC(C)C)NC(=O)[C@H](CC(C)C)NC(=O)[C@H](CCC(=O)O)NC(=O)[C@H](CC(N)=O)NC(=O)[C@H](CC(C)C)NC(=O)[C@H](CC(C)C)NC(=O)[C@H](CCC(=O)O)NC(=O)[C@H](CCCNC(=N)N)NC(=O)[C@H](Cc1ccccc1)NC(=O)[C@H](CC(C)C)NC(=O)[C@H](CC(=O)O)NC(=O)[C@H](CC(C)C)NC(=O)[C@@H](NC(=O)[C@@H]1CCCN1S(=O)(=O)c1cccc2c(N(C)C)cccc12)C(C)C)C(=O)N[C@@H](CCCCN)C(=O)N[C@@H](CCC(N)=O)C(=O)N[C@@H](CCCCN)C(=O)N[C@@H](CC(C)C)C(=O)N[C@@H](CCCCN)C(=O)O [compound 30]		90	85	98			38	90
PLDLFRELLNELLEALKQKLK [compound 85]	7	69	58	64	61			
PVLDEFREKLNEALEALKQKLK [peptide 94, reference compound]	5	63	18	27	70			
Ac-EWLKAFYEKVLEKLKELF-NH2 [peptide 238, reference compound]	19	58	49	60	72			
PVLDLFRELLNEGLEALKQKLK [compound 8]	83	93	20	61	90			
DWFKAFYDKVAEKFKEAF [peptide 243, reference compound]	5		10	50	64			
